For the assay, the system named is IRF pathway in THP1-Dual™ cells, THP-1 (HAQ). As to the kind of experiment: Reporter gene expression assay in THP-1 cells (THP1-Dual, IRF pathway Lucia luciferase reporter, 2′,3′-cGAMP stimulation). In kind it is cell-based, human. Conditions: Homo sapiens; THP1-Dual cells preincubated with compound 10 minutes, stimulation with 5 μM 2′,3′-cGAMP for 20 hr, QUANTI-Luc readout of the supernatant; read-out: THP-1 (HAQ) Activity (IC50 value range). On the procedure:
Reporter Gene Expression Assay in THP-1 Cells
THP1-Dual™ cells (Invivogen) were derived from the human THP-1 monocyte cell line by stable integration of two inducible reporter constructs. As a result, THP1-Dual™ cells allow the simultaneous study of the IRF pathway, by assessing the activity of a secreted luciferase (Lucia) and the NF-κB pathway, by monitoring the activity of secreted SEAP. 5×10^4 THP1-Dual™ cells were seeded in 384-well plates in growth medium and preincubated with novel compounds for 10 minutes followed by stimulation with 5 μM 2′,3′-cGAMP. After 20 hr of stimulation the supernatant was removed and the IRF pathway reporter protein was readily measured in the cell culture supernatant using QUANTI-Luc™ (Invivogen), a luciferase detection reagent on a Spectramax i3X luminometer.

We go through 30 compounds from US20260159511A1, “SMALL MOLECULE STING ANTAGONISTS” (CURADEV PHARMA PVT. LTD., priority 2021, published 2026).

On to `O=C(Nc1ccc2c(c1)N(Cc1ccccc1)C(=O)CS2)Nc1c[nH]c2ccc(-c3cnn(CCO)c3)cc12` [Example 46, 1-(4-benzyl-3-oxo-3,4-dihydro-2H-benzo[b][1,4]thiazin-6-yl)-3-(5-(1-(2-hydroxyethyl)-1H-pyrazol-4-yl)-1H-indol-3-yl)urea], for which the 50% inhibitory concentration (IC50) was in the range of 1000 to 10000 nM.
For `CCn1cc(-c2ccc3[nH]cc(NC(=O)Nc4ccc5c(c4)N(Cc4ccccc4)C(=O)CS5)c3c2)cn1` [Example 47, 1-(4-benzyl-3-oxo-3,4-dihydro-2H-benzo[b][1,4]thiazin-6-yl)-3-(5-(1-ethyl-1H-pyrazol-4-yl)-1H-indol-3-yl)urea], the IC50 is below 1000 nM.
Then `NC(=O)c1cccc(-c2ccc3[nH]cc(NC(=O)Nc4ccc5c(c4)N(Cc4ccccc4)C(=O)CS5)c3c2)c1` [Example 48, 3-(3-(3-(4-benzyl-3-oxo-3,4-dihydro-2H-benzo[b][1,4]thiazin-6-yl)ureido)-1H-indol-5-yl)benzamide], with 1000 to 10000 nM.
Then `COCCn1cc(-c2ccc3[nH]cc(NC(=O)Nc4ccc5c(c4)N(Cc4ccccc4)C(=O)CS5)c3c2)cn1` [Example 49, 1-(4-benzyl-3-oxo-3,4-dihydro-2H-benzo[b][1,4]thiazin-6-yl)-3-(5-(1-(2-methoxyethyl)-1H-pyrazol-4-yl)-1H-indol-3-yl)urea], with 1000 to 10000 nM.
As for `O=C(Nc1ccc2c(c1)N(Cc1ccccc1)C(=O)CS2)Nc1c[nH]c2ccc(-c3cnn(C(F)F)c3)cc12` [Example 50, 1-(4-benzyl-3-oxo-3,4-dihydro-2H-benzo[b][1,4]thiazin-6-yl)-3-(5-(1-(difluoromethyl)-1H-pyrazol-4-yl)-1H-indol-3-yl)urea], the IC50 is below 1000 nM.
Then `O=C(Nc1ccc2c(c1)N(Cc1ccccc1)C(=O)CS2)Nc1c[nH]c2ccc(-c3ccncc3)cc12` [Example 51, 1-(4-benzyl-3-oxo-3,4-dihydro-2H-benzo[b][1,4]thiazin-6-yl)-3-(5-(pyridin-4-yl)-1H-indol-3-yl)urea], with below 1000 nM.
Then `N#CCCn1cc(-c2ccc3[nH]cc(NC(=O)Nc4ccc5c(c4)N(Cc4ccccc4)C(=O)CS5)c3c2)cn1` [Example 52, 1-(4-benzyl-3-oxo-3,4-dihydro-2H-benzo[b][1,4]thiazin-6-yl)-3-(5-(1-(2-cyanoethyl)-1H-pyrazol-4-yl)-1H-indol-3-yl)urea], with 1000 to 10000 nM.
On to `COc1cccc(-c2ccc3[nH]cc(NC(=O)Nc4ccc5c(c4)N(Cc4ccccc4)C(=O)CS5)c3c2)c1` [Example 53, 1-(4-benzyl-3-oxo-3,4-dihydro-2H-benzo[b][1,4]thiazin-6-yl)-3-(5-(3-methoxyphenyl)-1H-indol-3-yl)urea], for which the IC50 is below 1000 nM.
`CS(=O)(=O)c1cccc(-c2ccc3[nH]cc(NC(=O)Nc4ccc5c(c4)N(Cc4ccccc4)C(=O)CS5)c3c2)c1` [Example 54, 1-(4-benzyl-3-oxo-3,4-dihydro-2H-benzo[b][1,4]thiazin-6-yl)-3-(5-(3-(methylsulfonyl)phenyl)-1H-indol-3-yl)urea]: the concentration for half-maximal inhibition (IC50) lay within 1000 to 10000 nM.
Take `O=C(Nc1ccc2c(c1)N(Cc1ccccc1)C(=O)CS2)Nc1c[nH]c2ccc(-c3cccnc3)cc12` [Example 55, 1-(4-benzyl-3-oxo-3,4-dihydro-2H-benzo[b][1,4]thiazin-6-yl)-3-(5-(pyridin-3-yl)-1H-indol-3-yl)urea]: the IC50 is below 1000 nM.
For the compound `O=C(Nc1ccc2c(c1)N(Cc1ccccc1)C(=O)CS2)Nc1c[nH]c2ccc(-c3cncnc3)cc12` [Example 56, 1-(4-benzyl-3-oxo-3,4-dihydro-2H-benzo[b][1,4]thiazin-6-yl)-3-(5-(pyrimidin-5-yl)-1H-indol-3-yl)urea], the concentration for half-maximal inhibition (IC50) was below 1000 nM.
Then `O=C(Nc1ccc2c(c1)N(Cc1ccccc1)C(=O)CS2)Nc1c[nH]c2ccc(-c3cncc(Cl)c3)cc12` [Example 57, 1-(4-benzyl-3-oxo-3,4-dihydro-2H-benzo[b][1,4]thiazin-6-yl)-3-(5-(5-chloropyridin-3-yl)-1H-indol-3-yl)urea], with below 1000 nM.
`O=C(Nc1ccc2c(c1)N(Cc1ccccc1)C(=O)CS2)Nc1c[nH]c2ccc(-c3cccc(OC(F)(F)F)c3)cc12` [Example 58, 1-(4-benzyl-3-oxo-3,4-dihydro-2H-benzo[b][1,4]thiazin-6-yl)-3-(5-(3-(trifluoromethoxy)phenyl)-1H-indol-3-yl)urea]: the half-maximal inhibitory concentration (IC50) is below 1000 nM.
The same measure for `CC(C)n1cc(-c2ccc3[nH]cc(NC(=O)Nc4ccc5c(c4)N(Cc4ccccc4)C(=O)CS5)c3c2)cn1` [Example 59, 1-(4-benzyl-3-oxo-3,4-dihydro-2H-benzo[b][1,4]thiazin-6-yl)-3-(5-(1-isopropyl-1H-pyrazol-4-yl)-1H-indol-3-yl)urea]: below 1000 nM.
The same measure for `O=C(Nc1ccc2c(c1)N(Cc1ccccc1)C(=O)CS2)Nc1c[nH]c2ccc(-c3cnn(CC4CC4)c3)cc12` [Example 60, 1-(4-benzyl-3-oxo-3,4-dihydro-2H-benzo[b][1,4]thiazin-6-yl)-3-(5-(1-(cyclopropylmethyl)-1H-pyrazol-4-yl)-1H-indol-3-yl)urea]: below 1000 nM; for `O=C(Nc1ccc2c(c1)N(Cc1ccccc1)C(=O)CS2)Nc1c[nH]c2ccc(-c3cncc(CO)c3)cc12` [Example 61, 1-(4-benzyl-3-oxo-3,4-dihydro-2H-benzo[b][1,4]thiazin-6-yl)-3-(5-(5-(hydroxymethyl)pyridin-3-yl)-1H-indol-3-yl)urea]: 1000 to 10000 nM.
Then `O=C1Cc2ccc(-c3ccc4[nH]cc(NC(=O)Nc5ccc6c(c5)N(Cc5ccccc5)C(=O)CS6)c4c3)cc2N1` [Example 62, 1-(4-benzyl-3-oxo-3,4-dihydro-2H-benzo[b][1,4]thiazin-6-yl)-3-(5-(2-oxoindolin-6-yl)-1H-indol-3-yl)urea], with below 1000 nM.
Consider `O=C(Nc1ccc2c(c1)N(Cc1ccccc1)C(=O)CS2)Nc1c[nH]c2ccc(-c3ccc(O)nc3)cc12` [Example 63, 1-(4-benzyl-3-oxo-3,4-dihydro-2H-benzo[b][1,4]thiazin-6-yl)-3-(5-(6-hydroxypyridin-3-yl)-1H-indol-3-yl)urea], for which the half-maximal inhibitory concentration (IC50) lay within 1000 to 10000 nM.
Then `O=C(Nc1ccc2c(c1)N(Cc1ccccc1)C(=O)CS2)Nc1c[nH]c2ccc(-c3cncs3)cc12` [Example 64, 1-(4-benzyl-3-oxo-3,4-dihydro-2H-benzo[b][1,4]thiazin-6-yl)-3-(5-(thiazol-5-yl)-1H-indol-3-yl)urea], with below 1000 nM; and `O=C(Nc1ccc2c(c1)N(Cc1ccccc1)C(=O)CS2)Nc1c[nH]c2ccc(-c3ccc4c(c3)OCO4)cc12` [Example 65, 1-(5-(benzo[d][1,3]dioxol-5-yl)-1H-indol-3-yl)-3-(4-benzyl-3-oxo-3,4-dihydro-2H-benzo[b][1,4]thiazin-6-yl)urea], with below 1000 nM; and `O=C(Nc1ccc2c(c1)N(Cc1ccccc1)C(=O)CS2)Nc1c[nH]c2ccc(-c3cnoc3)cc12` [Example 66, 1-(4-benzyl-3-oxo-3,4-dihydro-2H-benzo[b][1,4]thiazin-6-yl)-3-(5-(isoxazol-4-yl)-1H-indol-3-yl)urea], with below 1000 nM.
The same measure for `O=C(Nc1ccc2c(c1)N(Cc1ccccc1)C(=O)CS2)Nc1c[nH]c2ccc(-c3cccc(C(F)(F)F)c3)cc12` [Example 67, 1-(4-benzyl-3-oxo-3,4-dihydro-2H-benzo[b][1,4]thiazin-6-yl)-3-(5-(3-(trifluoromethyl)phenyl)-1H-indol-3-yl)urea]: below 1000 nM.
The same measure for `CC(O)Cn1cc(-c2ccc3[nH]cc(NC(=O)Nc4ccc5c(c4)N(Cc4ccccc4)C(=O)CS5)c3c2)cn1` (stereo not drawn) [Example 68, 1-(4-benzyl-3-oxo-3,4-dihydro-2H-benzo[b][1,4]thiazin-6-yl)-3-(5-(1-(2-hydroxypropyl)-1H-pyrazol-4-yl)-1H-indol-3-yl)urea]: 1000 to 10000 nM; for `CC1CN(Cc2cc(F)cc(F)c2)c2cc(NC(=O)Nc3c[nH]c4ccc(F)cc34)ccc2S1` (stereo not drawn) [Example 69, 1-(4-(3,5-Difluorobenzyl)-2-methyl-3,4-dihydro-2H-benzo[b][1,4]thiazin-6-yl)-3-(5-fluoro-1H-indol-3-yl)urea]: below 1000 nM; for `CC1CN(C(=O)c2ccccc2)c2cc(NC(=O)Nc3c[nH]c4ccccc34)ccc2S1` (stereo not drawn) [Example 70, 1-(4-Benzoyl-2-methyl-3,4-dihydro-2H-benzo[b][1,4]thiazin-6-yl)-3-(1H-indol-3-yl)urea]: below 1000 nM.
Turning to `O=C(Nc1ccc2c(c1)N(Cc1ccccc1)CCO2)Nc1c[nH]c2ccccc12` [Example 71, 1-(4-benzyl-3,4-dihydro-2H-benzo[b][1,4]oxazin-6-yl)-3-(1H-indol-3-yl)urea], the half-inhibitory concentration (IC50) was below 1000 nM.
Then `O=C(Nc1ccc2c(c1)OCCN2Cc1ccccc1)Nc1c[nH]c2ccccc12` [Example 72, 1-(4-benzyl-3,4-dihydro-2H-benzo[b][1,4]oxazin-7-yl)-3-(1H-indol-3-yl)urea], with below 1000 nM; and `O=C(Nc1ccc2c(c1)SCCN2Cc1ccccc1)Nc1c[nH]c2ccccc12` [Example 73, 1-(4-benzyl-3,4-dihydro-2H-benzo[b][1,4]thiazin-7-yl)-3-(1H-indol-3-yl)urea], with below 1000 nM.
Turning to `O=C(Nc1ccc2c(c1)N(Cc1c(F)cccc1Cl)CCO2)Nc1c[nH]c2ccccc12` [Example 74, 1-(4-(2-chloro-6-fluorobenzyl)-3,4-dihydro-2H-benzo[b][1,4]oxazin-6-yl)-3-(1H-indol-3-yl)urea], the half-inhibitory concentration (IC50) was below 1000 nM.
Then `O=C(Nc1ccc2c(c1)N(Cc1c(F)cccc1Cl)CCS2)Nc1c[nH]c2ccccc12` [Example 75, 1-(4-(2-chloro-6-fluorobenzyl)-3,4-dihydro-2H-benzo[b][1,4]thiazin-6-yl)-3-(1H-indol-3-yl)urea], with below 1000 nM.
